Tests used:
Assay type in all cases: cell-based, human
[1] = tested on: genomic DNA of LN229 MGMT−/MMR+ cells; assay: Genomic DNA denaturing gel electrophoresis; settings: 200 μM, 24 h
Method: Genomic DNA Denaturing Gel Electrophoresis. Cells were trypsinized, washed with 1×PBS, and stored at −80° C. prior to processing. Genomic DNA was extracted with the DNeasy Blood & Tissue Kit (Qiagen) per kit protocol. A 0.7% agarose gel was prepared in 100 mM NaCl-2 mM EDTA (pH 8) and soaked in 40 mM NaOH-1 mM EDTA running buffer for 2 h. Genomic DNA (400 ng/well) was then loaded in 1× BlueJuice loading buffer (Invitrogen) and subjected to electrophoresis at 2 V/cm for 30 min, followed by 3 V/cm for 2 h. The gel was neutralized in 150 mM NaCl-100 mM Tris (pH 7.4) for 30 min, twice, and then stained with 1× SYBR Gold in 150 mM NaCl-100 mM Tris (pH 7.4) for 90 min. Imaging was performed on a ChemiDoc XRS+ Molecular Imager (Bio-Rad).

[2] = tested on: LN229 MGMT− cells with shRNA targeting MSH6, MLH1, PMS2, or MSH3; assay: Short-term cell viability assay in cells lacking other MMR proteins
Description: FIGS. ZS3A-ZS3J. KL-50 (4a) is effective in TMZ (1a)-resistant cells lacking other MMR proteins. (FIG. ZS3A) Western blotting performed in LN229 MGMT+/− cells with stable expression of shRNA targeting MSH6, MLH1, PMS2, or MSH3 to confirm depletion of the shRNA targets. In shMSH6 cells, there is reduced expression of MSH2, and in shMLH1 cells, there is loss of PMS2, due to destabilization in the setting of loss of their heterodimeric partners. GAPDH serves as loading control. (FIG. ZS3B) (Table S1.) IC50 values derived from short-term viability assays in LN229 MGMT+/− cells lines, +/−shRNA, treated with TMZ (1a) or KL-50 (4a). aMGMT TI (therapeutic index)=IC50 (MGMT+/MMR+) divided by IC50 (MGMT−/MMR+). bMMR RI (resistance index)=IC50 (MGMT−/MMR−) divided by IC50 (MGMT−/MMR+). (FIG. ZS3C) Short-term viability assay curves for TMZ (1a) in LN229 MGMT+/−, MMR+/shMSH6 cells. (FIG. ZS3D) Short-term viability assay curves for KL-50 (4a) in LN229 MGMT+/−, MMR+/shMSH6 cells. (FIG. ZS3E) Short-term viability assay curves for TMZ (1a) in LN229 MGMT+/−, MMR+/shMLH1 cells. (FIG. ZS3F) Short-term viability assay curves for KL-50 (4a) in LN229 MGMT+/−, MMR+/shMLH1 cells. (FIG. ZS3G) Short-term viability assay curves for TMZ (1a) in LN229 MGMT+/−, MMR+/shPMS2 cells. […]
Short-term Cell Viability Assay. […] Cells were imaged on a Cytation 3 imaging reader (BioTek) and quantified using CellProfiler software.

[3] = tested on: LN229 MGMT+/−, MMR+/− isogenic lines; assay: Short-term cell viability assay with ROS scavenger NAC; settings: pre-treated with increasing concentrations of NAC
Method: FIGS. ZS5A-ZS5D. […] Columns, mean; error bars, SD; n=2 independent analyses. For (FIG. ZS5A) and (FIG. ZS5C), points, mean; error bars, SD; n=3 technical replicates.
Short-term Cell Viability Assay. Cells were seeded in 96-well plates at 1000 or 2000 cells/well and allowed to adhere at 23° C. for 60 min and then incubated overnight at 37° C. Cells were treated with indicated concentrations of compounds in triplicate for 4-6 days prior to fixation with 3.7% paraformaldehyde and nuclear staining with 1 μg/mL Hoechst 33342 dye. Cells were imaged on a Cytation 3 imaging reader (BioTek) and quantified using CellProfiler software.

Structure (SMILES)	crosslinked genomic DNA (in words) [1]	activity in MGMT− cells lacking MSH6, MLH1, PMS2, or MSH3 (in words) [2]	rescue of toxicity by NAC (in words) [3]
Cn1nnc2c(C(N)=O)ncn2c1=O [TMZ, temozolomide, reference compound]	no evidence of ICL induction		
NC(=O)c1ncn2c(=O)n(CCF)nnc12 [KL-50, 3-(2-fluoroethyl)-4-oxo-3H,4H-imidazo[4,3-d][1,2,3,5]tetrazine-8-carboxamide]	presence of crosslinked DNA	confirmed the activity	did not result in rescue

Reference: patent US20240400572A1, “COMPOUNDS AND METHODS FOR TREATING CANCERS THAT ARE MGMT DEFICIENT REGARDLESS OF MMR STATUS” (Yale University, priority 2021, published 2024)
